Common to all, as to type: biochemical
In experiment [1] the target is T1, recombinant heparanase (Homo sapiens, UniProt Q9Y251).
T1 construct: Recombinant enzymatically active heparanase was purified from heparanase-transfected CHO cells; made in house; host or cells: CHO cells transfected with heparanase
T1 sequence (Q9Y251 158-543 limits assumed): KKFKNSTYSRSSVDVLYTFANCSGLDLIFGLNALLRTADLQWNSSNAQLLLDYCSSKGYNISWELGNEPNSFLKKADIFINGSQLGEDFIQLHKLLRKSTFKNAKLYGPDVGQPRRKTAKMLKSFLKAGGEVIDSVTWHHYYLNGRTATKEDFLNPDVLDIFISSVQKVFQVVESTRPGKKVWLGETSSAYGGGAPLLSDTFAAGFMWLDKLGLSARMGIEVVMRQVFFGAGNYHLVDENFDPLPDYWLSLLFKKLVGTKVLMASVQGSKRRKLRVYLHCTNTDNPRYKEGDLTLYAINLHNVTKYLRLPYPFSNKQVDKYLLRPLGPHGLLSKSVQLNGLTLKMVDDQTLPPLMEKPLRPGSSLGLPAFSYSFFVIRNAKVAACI
T1 sequence (Q9Y251 36-109 limits assumed): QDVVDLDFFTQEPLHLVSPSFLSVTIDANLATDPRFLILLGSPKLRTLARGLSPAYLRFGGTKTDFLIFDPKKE
In words: Heparanase inhibition activity with sulfate labeled ECM as substrate (Example 4, Table 2). Conditions: 1 μg/ml; heparanase 40 ng/ml, 4 h, 37° C., pH 6.0. The protocol: Recombinant enzymatically active heparanase was purified from heparanase-transfected CHO cells (1).
Bovine corneal endothelial cells were plated into 35-mm tissue culture dishes at an initial density of 2×10^5 cells/ml and cultured as described above, except that 4% dextran T-40 was included in the growth medium (1, 52). On day 12, the subendothelial ECM was exposed by dissolving the cell layer with PBS containing 0.5% Triton X-100 and 20 mM NH4OH, followed by four washes with PBS (12). The ECM remained intact, free of cellular debris and firmly attached to the entire area of the tissue culture dish. To produce sulfate labelled ECM, […] (Amersham, Buckinghamshire, UK) was added (25 μCi/ml) on days 2 and 5 after seeding and the cultures were incubated with the label without medium change and processed as described (1, 52). Nearly 80% of the ECM radioactivity was incorporated into HSPG.
Heparin species were tested for their ability to inhibit heparanase, using metabolically sulfate labeled ECM as a substrate. […] Fractions (0.2 ml) were eluted with PBS at a flow rate of 5 ml/h and counted for radioactivity. […]
Heparanase activity is calculated as the total amount of cpm eluted in peak II multiplied by the Kav (i.e., elution position) of these fragments. […]

Experiment [2] concerns the target T2, recombinant heparanase (Homo sapiens, UniProt Q9Y251).
T2 sequence (Q9Y251 36-543): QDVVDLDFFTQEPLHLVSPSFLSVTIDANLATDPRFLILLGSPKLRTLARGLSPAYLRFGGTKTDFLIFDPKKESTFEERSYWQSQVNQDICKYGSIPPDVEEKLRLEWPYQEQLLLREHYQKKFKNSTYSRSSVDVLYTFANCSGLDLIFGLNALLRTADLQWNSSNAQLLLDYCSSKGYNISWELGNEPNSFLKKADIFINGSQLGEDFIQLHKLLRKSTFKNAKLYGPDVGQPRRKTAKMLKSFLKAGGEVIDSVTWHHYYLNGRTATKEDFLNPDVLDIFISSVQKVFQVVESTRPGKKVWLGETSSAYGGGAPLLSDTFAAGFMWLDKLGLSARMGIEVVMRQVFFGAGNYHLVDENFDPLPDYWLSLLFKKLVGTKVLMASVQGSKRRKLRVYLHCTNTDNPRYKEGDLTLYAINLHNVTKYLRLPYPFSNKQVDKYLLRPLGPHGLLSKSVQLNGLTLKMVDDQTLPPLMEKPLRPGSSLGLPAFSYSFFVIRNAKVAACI
Description: Heparanase inhibition, fragmentation of HS of sulphate labelled ECM (Table 1). Conditions: pH 6.2. The protocol: The heparanase inhibiting activity was determined according to a method established by Vlodavsky's group (Bitan M. et al, 1995). The method is based on evaluation of the extent of fragmentation of the heparan sulphate chains of heparan sulphate proteoglycans (HSPG) caused by heparanase. Sulphate labelled extracellular matrix (ECM) is most commonly used as a source of HSPG. Sulphate labelled ECM is incubated with recombinant heparanase at pH 6.2 in the absence and in the presence of increasing concentrations of the test compound. To evaluate the occurrence of proteoglycan degradation, the incubation medium is collected and applied for gel filtration on Sepharose 6B columns (0.9×30 cm). Fractions (0,2 ml) are eluted with PBS at a flow rate of 5 ml/h and counted for radioactivity. The excluded volume (Vo) is marked by blue dextran and the total included volume (Vt) by phenol red. Degradation fragments of HS side chains are eluted from Sepharose 6B at 0.5<Kav<0.8 (peak II).

For experiment [3], the target named is T1, recombinant heparanase. In words: Gel permeation analysis before and after digestion with heparanase (susceptibility to cleavage). The note with it: 2 mg compound, 4 μg recombinant heparanase, 48 h, 37° C., pH 5.8; GPC-HPLC. The protocol: FIG. 8. Glycol-splitting inhibits cleavage by heparanase. Gel filtration profiles of fully N-acetylated heparin (A) and 52% glycol split heparin (B) before (a) and after (b) incubation with heparanase. 2 mg of each compound were incubated for 48 h at 37° C. in 40 mM phosphate-citrate buffer, pH 5.8, with or without 4 μg recombinant heparanase in a total volume of 50 μl. The samples were lyophilized, then redisolved in 0.5 ml water and analyzed by GPC-HPLC using 300×7.8 mm TSK PW 2000 and PW 3000 colums and a refraction index detector. The sharp peak is from salts.
Gel permeation analysis of N-acetyl heparin (NAH) and ˜50% glycol-split heparin (H, 52gs) before and after digestion with heparinase 2 mg of each compound were incubated for 48 h at 37° C. in 40 mM phosphate-citrate buffer, pH 5.8, with or without 4 μg recombinant heparanase in a total volume of 50 μl. The samples were lyophilized, then redisolved in 0.5 ml of water and analyzed by GPC-HPLC using 300×7.8 mm TSK PW 2000 and PW 3000 columns.

For the substance Heparin, the “Heparanase inhibitory activity, % Mean [SD (N)]” value on recombinant heparanase [1] is reported as approximately 70%. The Inhibition – broadly, the change of the read-out against control, counted positive when it falls – at recombinant heparanase [2] was more than 100%. Moreover, the cleavage by heparanase entry at recombinant heparanase [3] is listed as “cleaved by heparanase”.
